Values joined by “and” are separate entries in the source; they are usually repeats but may differ in a detail not shown here. Equal entries are not always repeated.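 A five-concentration, 48-hour dose response in 96-well plates underlies each endpoint, interpolated linearly between surrounding concentrations. TGI: concentration producing complete growth inhibition.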 Where only a bound is given, the exact number is not on record here.

One experiment deals with M14 melanoma. The experiment can be described thus: inhibition of tumour cell growth, NCI panel, 48 h.
Compound `C=CCOc1cccc(C2(O)c3ccccc3C3=NCCCN32)c1` (stereo not drawn) returned a TGI of 26.1 µM.
On the same count and under the same terms, the value for `O=C1CCCCC/C1=C\c1cccc(Cl)c1` was > 100 µM.
Turning to `CCc1c2c([nH]c(=S)c1C#N)CCC2`, the TGI was > 100 µM.
The same measure, in the same setting: the figure for `C=CCN1C(=O)/C(=C/c2ccc(OC)cc2)N=C1SC/C=C/C` is > 100 µM; for `Cc1nc2ccccc2n1COC(Cn1ccnc1)c1ccc(Cl)cc1Cl` (stereo not drawn) it is > 100 µM; for `Cn1c2ccccc2c2c(-c3ccccc3)cc3c(c21)C(=O)C=CC3=O` it is 3.4 µM.
Same read-out and setting: the value for `Nc1ncnn2c(C3OC(CO)C(O)C3O)ccc12` (stereo not drawn) was 0.413 µM; that for `COC(=O)[C@@H]1CN(C(C)=O)C(=O)N1` was > 100 µM; that for `COc1ccc(-c2c(C#N)c(N)n(C3OCC(OC(C)=O)C(OC(C)=O)C3OC(C)=O)c(=S)c2C#N)cc1` (stereo not drawn) was > 100 µM.

The subject of another experiment is UO-31 renal. The experiment can be described thus: inhibition of tumour cell growth, NCI panel, 48 h.
On to `CC(C)=CCC/C(C)=C/CC/C(C)=C/CC/C(C)=C/C=C/C=C(\C)CC/C=C(\C)CC/C=C(\C)CCC=C(C)C`, for which the TGI amounted to 54.8 µM.
Same read-out and setting: the value for `CCOC(=O)P(=O)(O)c1ccc(N(C)Cc2ccccc2)cc1` was > 100 µM.
On the same count and under the same terms, the figure for `C=C(C)C1=CCC[C@]2(C1)N=C(OC)[C@@H](C(C)C)N=C2OC` is > 100 µM; for `Cc1cc2ccccc2n2c1nc1ccccc12` it is > 100 µM.
For the compound `[N-]=[N+]=Nc1ccccc1C(=O)N1C(=O)c2ccccc2C(=O)N(C(=O)c2ccccc2N=[N+]=[N-])c2ccccc21`, the TGI was > 100 µM.
The same measure, in the same setting: the figure for `CCCCCCCCCCCCCCCCCCNC(=O)C(N)Cc1ccc(OCc2ccccc2)cn1` (stereo not drawn) is 32.5 µM.
Still for that read-out and setting: the figure for `Cc1ccc2c(c1)[nH]c(=S)n2/C=C1\C(=O)Oc2ccccc2C1=O` is > 100 µM; for `CC(C)Cn1cnc2c(NCC(C)O)nc3ccccc3c21` (stereo not drawn) it is > 100 µM.
Same read-out and setting: the value for `OC1(c2cccs2)c2cccc(Cl)c2C(O)(c2cccs2)c2c(Cl)cccc21` (stereo not drawn) was > 100 µM.
In the case of `C=CCOc1cccc(C2(O)c3ccccc3C3=NCCCN32)c1` (stereo not drawn), the TGI stood at 29.4 µM.
The same measure, in the same setting: the figure for `O=C1CCCCC/C1=C\c1cccc(Cl)c1` is > 100 µM.
On the same count and under the same terms, the figure for `CCc1c2c([nH]c(=S)c1C#N)CCC2` is > 100 µM; for `C=CCN1C(=O)/C(=C/c2ccc(OC)cc2)N=C1SC/C=C/C` it is > 100 µM; for `Cc1nc2ccccc2n1COC(Cn1ccnc1)c1ccc(Cl)cc1Cl` (stereo not drawn) it is > 100 µM.
On the same count and under the same terms, the figure for `Cn1c2ccccc2c2c(-c3ccccc3)cc3c(c21)C(=O)C=CC3=O` is 3.37 µM.
On to `Nc1ncnn2c(C3OC(CO)C(O)C3O)ccc12` (stereo not drawn), for which the TGI worked out at 0.494 µM.
The same measure, in the same setting: the value for `COC(=O)[C@@H]1CN(C(C)=O)C(=O)N1` was > 100 µM; that for `COc1ccc(-c2c(C#N)c(N)n(C3OCC(OC(C)=O)C(OC(C)=O)C3OC(C)=O)c(=S)c2C#N)cc1` (stereo not drawn) was 82.6 µM and > 100 µM.

The next experiment has as its system SNB-75 CNS. In words: inhibition of tumour cell growth, NCI panel, 48 h.
Take `CC(C)=CCC/C(C)=C/CC/C(C)=C/CC/C(C)=C/C=C/C=C(\C)CC/C=C(\C)CC/C=C(\C)CCC=C(C)C`: the TGI is > 100 µM.
Still for that read-out and setting: the value for `CCOC(=O)P(=O)(O)c1ccc(N(C)Cc2ccccc2)cc1` was > 100 µM; that for `C=C(C)C1=CCC[C@]2(C1)N=C(OC)[C@@H](C(C)C)N=C2OC` was > 100 µM; that for `Cc1cc2ccccc2n2c1nc1ccccc12` was > 100 µM.
As to `[N-]=[N+]=Nc1ccccc1C(=O)N1C(=O)c2ccccc2C(=O)N(C(=O)c2ccccc2N=[N+]=[N-])c2ccccc21`, the TGI worked out at 64 µM.
Regarding `CCCCCCCCCCCCCCCCCCNC(=O)C(N)Cc1ccc(OCc2ccccc2)cn1` (stereo not drawn), the TGI was determined as 47.4 µM.
On the same count and under the same terms, the figure for `Cc1ccc2c(c1)[nH]c(=S)n2/C=C1\C(=O)Oc2ccccc2C1=O` is > 100 µM; for `CC(C)Cn1cnc2c(NCC(C)O)nc3ccccc3c21` (stereo not drawn) it is > 100 µM.
The same measure, in the same setting: the figure for `OC1(c2cccs2)c2cccc(Cl)c2C(O)(c2cccs2)c2c(Cl)cccc21` (stereo not drawn) is > 100 µM.
The same measure, in the same setting: the figure for `C=CCOc1cccc(C2(O)c3ccccc3C3=NCCCN32)c1` (stereo not drawn) is 36.8 µM; for `O=C1CCCCC/C1=C\c1cccc(Cl)c1` it is > 100 µM; for `CCc1c2c([nH]c(=S)c1C#N)CCC2` it is > 100 µM.
In the case of `C=CCN1C(=O)/C(=C/c2ccc(OC)cc2)N=C1SC/C=C/C`, the TGI was > 100 µM.
The same measure, in the same setting: the figure for `Cc1nc2ccccc2n1COC(Cn1ccnc1)c1ccc(Cl)cc1Cl` (stereo not drawn) is > 100 µM; for `Cn1c2ccccc2c2c(-c3ccccc3)cc3c(c21)C(=O)C=CC3=O` it is > 9.66 µM; for `Nc1ncnn2c(C3OC(CO)C(O)C3O)ccc12` (stereo not drawn) it is 0.866 µM.
On the same count and under the same terms, the figure for `COC(=O)[C@@H]1CN(C(C)=O)C(=O)N1` is > 100 µM; for `COc1ccc(-c2c(C#N)c(N)n(C3OCC(OC(C)=O)C(OC(C)=O)C3OC(C)=O)c(=S)c2C#N)cc1` (stereo not drawn) it is > 100 µM.

The next experiment deals with IGROV1 ovarian. The experiment can be described thus: inhibition of tumour cell growth, NCI panel, 48 h.
In turn, `CC(C)=CCC/C(C)=C/CC/C(C)=C/CC/C(C)=C/C=C/C=C(\C)CC/C=C(\C)CC/C=C(\C)CCC=C(C)C` yielded a TGI of 36.4 µM.
The same measure, in the same setting: the value for `CCOC(=O)P(=O)(O)c1ccc(N(C)Cc2ccccc2)cc1` was > 100 µM.
The same measure, in the same setting: the value for `C=C(C)C1=CCC[C@]2(C1)N=C(OC)[C@@H](C(C)C)N=C2OC` was > 100 µM.
On the same count and under the same terms, the value for `Cc1cc2ccccc2n2c1nc1ccccc12` was > 100 µM; that for `[N-]=[N+]=Nc1ccccc1C(=O)N1C(=O)c2ccccc2C(=O)N(C(=O)c2ccccc2N=[N+]=[N-])c2ccccc21` was > 100 µM.
`CCCCCCCCCCCCCCCCCCNC(=O)C(N)Cc1ccc(OCc2ccccc2)cn1` (stereo not drawn) registered a TGI of 32.6 µM.
On to `Cc1ccc2c(c1)[nH]c(=S)n2/C=C1\C(=O)Oc2ccccc2C1=O`, for which the TGI was > 100 µM.
On the same count and under the same terms, the value for `CC(C)Cn1cnc2c(NCC(C)O)nc3ccccc3c21` (stereo not drawn) was > 100 µM; that for `OC1(c2cccs2)c2cccc(Cl)c2C(O)(c2cccs2)c2c(Cl)cccc21` (stereo not drawn) was > 100 µM; that for `C=CCOc1cccc(C2(O)c3ccccc3C3=NCCCN32)c1` (stereo not drawn) was > 37.4 µM.
The same measure, in the same setting: the figure for `O=C1CCCCC/C1=C\c1cccc(Cl)c1` is > 100 µM.
The same measure, in the same setting: the figure for `CCc1c2c([nH]c(=S)c1C#N)CCC2` is > 100 µM; for `C=CCN1C(=O)/C(=C/c2ccc(OC)cc2)N=C1SC/C=C/C` it is > 100 µM.
With `Cc1nc2ccccc2n1COC(Cn1ccnc1)c1ccc(Cl)cc1Cl` (stereo not drawn), the TGI is > 100 µM.
On the same count and under the same terms, the value for `Cn1c2ccccc2c2c(-c3ccccc3)cc3c(c21)C(=O)C=CC3=O` was 5.5 µM; that for `Nc1ncnn2c(C3OC(CO)C(O)C3O)ccc12` (stereo not drawn) was 0.562 µM; that for `COC(=O)[C@@H]1CN(C(C)=O)C(=O)N1` was > 100 µM.
Same read-out and setting: the figure for `COc1ccc(-c2c(C#N)c(N)n(C3OCC(OC(C)=O)C(OC(C)=O)C3OC(C)=O)c(=S)c2C#N)cc1` (stereo not drawn) is > 100 µM.

For the next experiment, the system named is HCC-2998 colon. The experiment can be described thus: inhibition of tumour cell growth, NCI panel, 48 h.
On to `CC(C)=CCC/C(C)=C/CC/C(C)=C/CC/C(C)=C/C=C/C=C(\C)CC/C=C(\C)CC/C=C(\C)CCC=C(C)C`, for which the TGI was > 100 µM.
The same measure, in the same setting: the figure for `CCOC(=O)P(=O)(O)c1ccc(N(C)Cc2ccccc2)cc1` is > 100 µM; for `C=C(C)C1=CCC[C@]2(C1)N=C(OC)[C@@H](C(C)C)N=C2OC` it is > 100 µM.
Consider `Cc1cc2ccccc2n2c1nc1ccccc12`, for which the TGI is > 100 µM.
`[N-]=[N+]=Nc1ccccc1C(=O)N1C(=O)c2ccccc2C(=O)N(C(=O)c2ccccc2N=[N+]=[N-])c2ccccc21`: the TGI is > 100 µM.

These data come from PubChem BioAssay (NCI).
